For 19 molecules, IC50 and GI50 results are on record in patent US20260159486A1, “BENZO[H]QUINAZOLINE-4-AMINE DERIVATIVES FOR THE TREATMENT OF CANCER” (Redona Therapeutics, Inc., priority 2021, published 2026).

A value given as a limit tells only on which side of the number the result lay.

Test [1] concerns the target T1, recombinant human CLK3 (Homo sapiens, UniProt P49761).
T1 construct: purchased Thermo Fisher Scientific PV3826
Kind of test: CLK3 kinase assay (LANCE Ultra). Format: biochemical. To be noted: CLK3 0.5 nM, ATP 300 μM, 3 hours at 30° C. How it is done:
CLK3 kinase activity was measured using the LANCE® Ultra technology (PerkinElmer) essentially as recommended by the supplier. Briefly, 2.5 μL of test sample at 4× the desired final concentration in 4% DMSO were dispensed into white, low volume, round bottom, 384 well plates (Corning, cat. no. 4512). 5 μL of a mixture containing recombinant human CLK3 (Thermo Fisher Scientific, cat. no. PV3826) and the labeled peptide substrate ULight™-CREBtide (PerkinElmer, cat. no. TRF0107) prepared in 1.33× kinase buffer (Thermo Fisher Scientific, cat. no. PV3189) were then added. Finally, the reactions were started by adding 2.5 μL of a 4× solution of ATP in kinase buffer. The plates were sealed with adhesive foils and incubated for 3 hours at 30° C. in the dark. The final concentrations of CLK3, ULight™-CREBtide, and ATP were 0.5 nM, 50 nM, and 300 μM, respectively. 5 μL of 40 mM EDTA were then added to terminate the reactions. The Eu-anti-phospho-CREB antibody (PerkinElmer, cat. no. TRF0200) diluted in LANCE® detection buffer (PerkinElmer, cat. no. CR97) was then added to a final concentration of 2 nM and the reactions were incubated for 1 hour at room temperature in the dark. The signals were measured using a Synergy 4 reader (BioTek) with a 320/80 nm filter for the excitation and 620/10 nm and 665/8 nm filters for the donor and acceptor emission, respectively. Relative inhibition values were calculated by normalizing the raw data using solvent control wells (0% inhibition) and wells that received no ATP (100% inhibition). IC50 values were calculated by fitting the concentration-response data to a sigmoidal 4-parameter logistic model. IC50 values for CLK3 are determined from duplicate measurements at ten different concentrations (serial 1:3 dilutions).
(In general: TR-FRET usually uses a lanthanide donor and a delayed reading to cut background.)

Test [2] has as its system MDA-MB-231 cells. Kind of test: MDA-MB-231 proliferation assay. Format: cell-based. To be noted: Homo sapiens, MDA-MB-231, 72 h, YO-PRO-1 Iodide readout. The text has this: (§1) MDA-MB-231 and CAL-51 Proliferation Assay
(§2) Cells (MDA-MB-231 (American Type Culture Collection (ATCC), #HTB-26) or CAL-51 (Deutsche Sammlung von Mikroorganismen und Zellkulturen (DSMZ), #ACC302) as applicable) were cultivated in DMEM High Glucose (4.5 g/L) with L-Glutamine (BioConcept, cat. no. 1-26F03-I) supplemented with 1% Na-pyruvate (Sigma, cat. no. S8636), 1% Penicillin-Streptomycin (BioConcept, cat. no. 4-01F00H), and 10% FBS (Sigma, cat. no. F9665) using standard techniques. Cells were seeded in black, clear-bottom 384 well plates for tissue culture (Greiner Bio-One, cat. no. 781091) at a density of 750 cells per well in 20 μL medium and the plates were incubated overnight at 37° C. with 5% CO2 prior to treatment. Experimental compounds were serially diluted in DMSO to 200× the desired final concentrations. The solutions were then diluted 1:40 with culture medium and 5 μL aliquots were mixed into the wells containing the cells. The final concentration of DMSO was 0.5%. The plates were incubated for 72 hours and cell numbers were then measured using YO-PRO™-1 Iodide (ThermoFisher Scientific, cat. no. Y3603) essentially as recommended by the manufacturer. Briefly, a 12.5 μM solution of YO-PRO™_1 Iodide in 5× YO—PRO buffer (100 mM Na-citrate, 130 mM NaCl, pH 4) was combined with an equal volume of lysis buffer (0.6% NP-40, 30 mM EDTA, 30 mM EGTA, 0.33× YO—PRO buffer) and 12.5 μL of the mixture were dispensed into each well. The plates were incubated at room temperature in the dark for 30 minutes. Fluorescence intensity signals were then measured on a Synergy 4 reader (BioTek) using 485/20 nm and 530/25 nm filters for the excitation and emission, respectively. Relative proliferation values were calculated by normalizing the raw data using DMSO-treated cells (100% proliferation) and the signals obtained from cells that were evaluated at the time of compound addition (0% proliferation). The concentration-response data were fitted to a sigmoidal 4-parameter logistic model with the maximum constrained to 100%. GI50 values were calculated from the curves as the compound concentrations reducing proliferation to 50%.

Test [3] has as its system CAL-51 cells. Put plainly: CAL-51 proliferation assay. The note with it: Homo sapiens, CAL-51, 72 h, YO-PRO-1 Iodide readout. Format: cell-based.
Description: as §1, §2

T1 sequence (P49761 whole entry): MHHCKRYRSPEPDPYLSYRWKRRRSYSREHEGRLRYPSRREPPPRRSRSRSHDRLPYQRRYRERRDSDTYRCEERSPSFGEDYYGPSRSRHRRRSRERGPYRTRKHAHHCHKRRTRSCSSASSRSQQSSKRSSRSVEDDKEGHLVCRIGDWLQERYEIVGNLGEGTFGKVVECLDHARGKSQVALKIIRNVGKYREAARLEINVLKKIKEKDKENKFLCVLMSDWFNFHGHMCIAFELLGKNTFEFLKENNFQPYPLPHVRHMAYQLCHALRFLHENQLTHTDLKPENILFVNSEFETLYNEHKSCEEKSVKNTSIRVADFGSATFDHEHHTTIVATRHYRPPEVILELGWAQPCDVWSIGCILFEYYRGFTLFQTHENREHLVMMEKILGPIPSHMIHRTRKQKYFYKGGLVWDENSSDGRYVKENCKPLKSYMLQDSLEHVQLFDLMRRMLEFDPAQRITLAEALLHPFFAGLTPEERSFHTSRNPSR

`COC1CCN(c2c(O[C@H]3CC[C@H](N)CC3)ccc3c2CC(C)(C)c2c(N)ncnc2-3)C1` (single isomer, unassigned) [Example 63, 8-(trans-4-aminocyclohexoxy)-7-(3-methoxypyrrolidin-1-yl)-5,5-dimethyl-6H-benzo[h]quinazolin-4-amine]: the IC50 (usually the point on the concentration scale where inhibition reaches its midpoint) in test [1] lay in the range of 30 to 100 nM. Besides, the GI50 in test [2] and in test [3] was 100 to 2000 nM in each case.
Regarding `CN(Cc1cocn1)c1c(O[C@H]2CC[C@H](N)CC2)ccc2c1CC(C)(C)c1c(N)ncnc1-2` [Example 105, 8-(trans-4-aminocyclohexoxy)-N7,5,5-trimethyl-N7-(oxazol-4-ylmethyl)-6H-benzo[h]quinazoline-4,7-diamine], in test [1], the IC50 fell in the range of 101 to 1000 nM. The 50% growth inhibitory concentration (GI50) in test [2] and in test [3] was 100 to 2000 nM throughout.
As to `CC1(C)Cc2c(ccc3c2NCCO3)-c2ncnc(N)c21` [Example 3, 6,6-dimethyl-2,3,4,5-tetrahydroquinazolino[7,8-f][1,4]benzoxazin-7-amine], in test [1], the 50% inhibitory concentration (IC50) is 101 to 1000 nM. The values for the GI50 in test [2] and in test [3] were more than 2000 nM and 100 to 2000 nM, respectively.
Take `COCCNc1c(O[C@H]2CC[C@H](N)CC2)ccc2c1CC(C)(C)c1c(N)ncnc1-2` [Example 18, 8-(trans-4-aminocyclohexoxy)-N7-(2-methoxyethyl)-5,5-dimethyl-6H-benzo[h]quinazoline-4,7-diamine]: in test [1], the IC50 was in the range of 101 to 1000 nM. Moreover, the GI50 in test [2] and in test [3] was 100 to 2000 nM in each case.
As for `CC1(C)Cc2c(ccc(Br)c2NC[C@@H]2CNC(=O)O2)-c2ncnc(N)c21` [Example 121, (5R)-5-[[(4-amino-8-bromo-5,5-dimethyl-6H-benzo[h]quinazolin-7-yl)amino]methyl]oxazolidin-2-one], the half-maximal inhibitory concentration (IC50) in test [1] is less than 30 nM. The 50% growth inhibitory concentration (GI50) in test [2] and in test [3] was less than 100 nM throughout.
As to `CC1(C)Cc2c(ccc(O[C@H]3CC[C@H](N)CC3)c2N2CCC(C#N)C2)-c2ncnc(N)c21` (stereo partly drawn) [Example 66, 1-[4-amino-8-(trans-4-aminocyclohexoxy)-5,5-dimethyl-6H-benzo[h]quinazolin-7-yl]pyrrolidine-3-carbonitrile], the IC50 in test [1] is less than 30 nM. Besides, the 50% growth inhibitory concentration (GI50) in test [2] and in test [3] was less than 100 nM in each case.
For the molecule `CC1(C)Cc2c(ccc(O[C@H]3CC[C@H](N)CC3)c2N(CCC#N)C2CC2)-c2ncnc(N)c21` [Example 51, 3-[[4-amino-8-(trans-4-aminocyclohexoxy)-5,5-dimethyl-6H-benzo[h]quinazolin-7-yl]-cyclopropyl-amino]propanenitrile], the 50% inhibitory concentration (IC50) in test [1] was less than 30 nM. For the same molecule, the GI50 in test [2] and in test [3] was less than 100 nM each time.
For `CC1(C)Cc2c(ccc(O[C@H]3CC[C@@H](N)CC3)c2NC[C@@H]2CNC(=O)O2)-c2ncnc(N)c21` [Example 128, (5R)-5-[[[4-amino-8-(cis-4-aminocyclohexoxy)-5,5-dimethyl-6H-benzo[h]quinazolin-7-yl]amino]methyl]oxazolidin-2-one], the IC50 in test [1] was less than 30 nM. For the same molecule, the 50% growth inhibitory concentration (GI50) in test [2] and in test [3] was more than 2000 nM throughout.
Consider `CCCN(CCO)c1c(O[C@H]2CC[C@@H](N)CC2)ccc2c1CC(C)(C)c1c(N)ncnc1-2` [Example 23, 2-[[4-amino-8-(cis-4-aminocyclohexoxy)-5,5-dimethyl-6H-benzo[h]quinazolin-7-yl]-propyl-amino]ethanol], for which, in test [1], the half-maximal inhibitory concentration (IC50) is less than 30 nM. The 50% growth inhibitory concentration (GI50) in test [2] and in test [3] was 100 to 2000 nM each time.
Regarding `COCCN(C)c1c(O[C@H]2CC[C@@H](N)CC2)ccc2c1CC1(CCCC1)c1c(N)ncnc1-2` [Example 75, 8-(cis-4-aminocyclohexoxy)-N7-(2-methoxyethyl)-N7-methyl-spiro[6H-benzo[h]quinazoline-5,1′-cyclopentane]-4,7-diamine], in test [1], the IC50 was less than 30 nM. Besides, the GI50 (in general, the concentration giving 50% growth inhibition) in test [2] is 100 to 2000 nM; in test [3], less than 100 nM.
`COc1ccc2c(c1C)CC(C)(C)c1c(N)ncnc1-2` [Example 1, 8-methoxy-5,5,7-trimethyl-6H-benzo[h]quinazolin-4-amine]: the half-inhibitory concentration (IC50) in test [1] is less than 30 nM. Besides, the 50% growth inhibitory concentration (GI50) was more than 2000 nM in test [2] and 100 to 2000 nM in test [3].
For `CC(C)CN(C)c1c(O[C@H]2CC[C@H](N)CC2)ccc2c1CC(C)(C)c1c(N)ncnc1-2` [Example 106, 8-(trans-4-aminocyclohexoxy)-N7-isobutyl-N7,5,5-trimethyl-6H-benzo[h]quinazoline-4,7-diamine] the same measures were 30 to 100 nM, 100 to 2000 nM and 100 to 2000 nM.
Consider `CC1(C)Cc2c(ccc3c2N(CCC#N)CCO3)-c2ncnc(N)c21` [Example 117, 3-(7-amino-6,6-dimethyl-3,5-dihydro-2H-quinazolino[7,8-f][1,4]benzoxazin-4-yl)propanenitrile], for which the half-inhibitory concentration (IC50) in test [1] was in the range of 30 to 100 nM. The GI50 in test [2] was 100 to 2000 nM; in test [3], less than 100 nM.
The corresponding values for `COc1ccc2c(c1N1CC(CO)C1)CC(C)(C)c1c(N)ncnc1-2` [Example 28, [1-(4-amino-8-methoxy-5,5-dimethyl-6H-benzo[h]quinazolin-7-yl)azetidin-3-yl]methanol] are 101 to 1000 nM, 100 to 2000 nM and 100 to 2000 nM.
Take `CN(CCNS(C)(=O)=O)c1c(O[C@H]2CC[C@H](N)CC2)ccc2c1CC(C)(C)c1c(N)ncnc1-2` [Example 39, N-[2-[[4-amino-8-(trans-4-aminocyclohexoxy)-5,5-dimethyl-6H-benzo[h]quinazolin-7-yl]-methyl-amino]ethyl]methanesulfonamide]: the half-maximal inhibitory concentration (IC50) in test [1] lay within 101 to 1000 nM. For the same molecule, the GI50 in test [2] was more than 2000 nM; in test [3] it was 100 to 2000 nM.
On to `CC1(C)Cc2c(ccc(O[C@H]3CC[C@H](N)CC3)c2S(=O)(=O)NCC#N)-c2ncnc(N)c21` [Example 116, 4-amino-8-(trans-4-aminocyclohexoxy)-N-(cyanomethyl)-5,5-dimethyl-6H-benzo[h]quinazoline-7-sulfonamide], for which the IC50 in test [1] lay in the range of 30 to 100 nM. In addition, the GI50 in test [2] and in test [3] was 100 to 2000 nM throughout.
In the case of `CC1(C)Cc2c(ccc(O[C@H]3CC[C@H](N)CC3)c2NCC#N)-c2ncnc(N)c21` [Example 35, 2-[[4-amino-8-(trans-4-aminocyclohexoxy)-5,5-dimethyl-6H-benzo[h]quinazolin-7-yl]amino]acetonitrile], the 50% inhibitory concentration (IC50) in test [1] fell in the range of 30 to 100 nM. Besides, the GI50 in test [2] and in test [3] was 100 to 2000 nM throughout.
`CN1CCN(c2ccc3c(c2N(C)CCC#N)CC(C)(C)c2c(N)ncnc2-3)CC1` [Example 118, 3-[[4-amino-5,5-dimethyl-8-(4-methylpiperazin-1-yl)-6H-benzo[h]quinazolin-7-yl]-methyl-amino]propanenitrile]: the IC50 in test [1] is less than 30 nM. The GI50 in test [2] and in test [3] was less than 100 nM throughout.
Take `CC1(C)Cc2c(ccc(Br)c2N(CCC#N)C[C@@H]2CNC(=O)O2)-c2ncnc(N)c21` [Example 132, 3-[(4-amino-8-bromo-5,5-dimethyl-6H-benzo[h]quinazolin-7-yl)-[[(5S)-2-oxooxazolidin-5-yl]methyl]amino]propanenitrile]: in test [1], the IC50 is less than 30 nM. Moreover, the 50% growth inhibitory concentration (GI50) in test [2] and in test [3] was 100 to 2000 nM each time.
